# From the supplement of paper PMC10307832
# Columns and labels:
# Assay in all cases: relative viability (nuclei count vs DMSO), 5 days (fraction); higher = more cells survive
# CX-5461 + AZD7762 = compound: Cc1cnc(CNC(=O)c2c(=O)c3ccc(N4CCCN(C)CC4)nc3n3c2sc2ccccc23)cn1 [CX-5461] + NC(=O)Nc1cc(-c2cccc(F)c2)sc1C(=O)N[C@H]1CCCNC1 [AZD7762] (partner 0.2 µM)
# How it was run: (§1)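 After 5 days of treatment, lung cancer cells in 1536-well plates were fixed and stained in a single step (final 0.05% Triton X-100, 1% formaldehyde, 1 ug/ml Hoechst) and their nuclei counted on 4× images. Treatment had been applied by pin tool the day after seeding as one drug alone or as a fixed anchor-drug dose with five library-drug doses (not always all listed) in √10 steps. Relative viability is the nuclei count of treated wells divided by that of vehicle wells, and values are medians of duplicate plates.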
# CX-5461 + Pemetrexed = compound: Cc1cnc(CNC(=O)c2c(=O)c3ccc(N4CCCN(C)CC4)nc3n3c2sc2ccccc23)cn1 [CX-5461] + Nc1nc2[nH]cc(CCc3ccc(C(=O)N[C@@H](CCC(=O)O)C(=O)O)cc3)c2c(=O)[nH]1 [Pemetrexed] (partner 0.2 µM)
# How it was run: as §1
# CX-5461 + Tozasertib = compound: Cc1cnc(CNC(=O)c2c(=O)c3ccc(N4CCCN(C)CC4)nc3n3c2sc2ccccc23)cn1 [CX-5461] + Cc1cc(Nc2cc(N3CCN(C)CC3)nc(Sc3ccc(NC(=O)C4CC4)cc3)n2)n[nH]1 [Tozasertib] (partner 0.1 µM)
# How it was run: as §1
# IMD-0354 + Phenformin = compound: O=C(Nc1cc(C(F)(F)F)cc(C(F)(F)F)c1)c1cc(Cl)ccc1O [IMD-0354] + N=C(N)NC(=N)NCCc1ccccc1 [Phenformin] (partner 250 µM)
# How it was run: as §1
Cell Line,relative viability (CX-5461 + AZD7762; first compound 0.01 µM),relative viability (CX-5461 + AZD7762; first compound 0.03162 µM),relative viability (CX-5461 + AZD7762; first compound 0.1 µM),relative viability (CX-5461 + AZD7762; first compound 0.3162 µM),relative viability (CX-5461 + AZD7762; first compound 1 µM),relative viability (CX-5461 + Pemetrexed; first compound 0.01 µM),relative viability (CX-5461 + Pemetrexed; first compound 0.03162 µM),relative viability (CX-5461 + Pemetrexed; first compound 0.1 µM),relative viability (CX-5461 + Pemetrexed; first compound 0.3162 µM),relative viability (CX-5461 + Pemetrexed; first compound 1 µM),relative viability (CX-5461 + Tozasertib; first compound 0.01 µM),relative viability (CX-5461 + Tozasertib; first compound 0.03162 µM),relative viability (CX-5461 + Tozasertib; first compound 0.1 µM),relative viability (CX-5461 + Tozasertib; first compound 0.3162 µM),relative viability (CX-5461 + Tozasertib; first compound 1 µM),relative viability (IMD-0354 + Phenformin; first compound 0.04 µM),relative viability (IMD-0354 + Phenformin; first compound 0.1265 µM),relative viability (IMD-0354 + Phenformin; first compound 0.4 µM),relative viability (IMD-0354 + Phenformin; first compound 1.265 µM),relative viability (IMD-0354 + Phenformin; first compound 4 µM)
201T,0.6,0.682,0.621,0.543,0.491,0.324,0.302,0.329,0.318,0.318,0.921,1.04,0.945,0.847,0.925,0.524,0.465,0.322,0.286,0.303
A549,,,,,,,,,,,,,,,,0.23,0.106,0.0873,0.03,0.0515
A-427,0.807,0.637,0.612,0.627,0.408,0.98,0.908,0.927,0.967,0.714,0.195,0.247,0.212,,0.212,0.379,0.209,0.247,0.105,0.112
ABC-1,0.753,0.777,0.845,,0.608,,,,,,0.15,0.194,0.188,,0.186,0.227,0.207,0.224,0.197,0.194
BEN,0.737,0.615,0.555,0.745,0.531,0.75,0.742,0.711,0.759,0.556,0.481,0.529,0.499,0.495,0.498,0.248,0.267,0.229,0.179,0.174
CAL-12T,0.715,0.658,0.601,0.698,0.449,1.29,1.29,1.09,1.1,0.86,0.361,0.353,0.222,0.272,0.174,0.623,0.512,0.252,0.117,0.134
COR-L23,,,,,,0.283,0.187,0.207,0.157,0.201,0.246,0.202,0.176,0.182,0.119,0.466,0.373,0.263,0.108,0.0986
COR-L 105,,,,,,1.13,0.943,1.03,1.16,0.706,0.342,0.339,0.4,0.371,0.306,0.659,0.462,0.39,0.183,0.211
ChaGo-K-1,0.976,0.909,0.758,0.478,0.698,0.251,0.256,0.243,0.214,0.255,0.185,0.227,0.247,0.229,0.232,0.584,0.544,0.318,0.225,0.199
EKVX,0.778,0.687,0.763,,0.45,0.457,0.394,0.437,,0.322,0.387,0.366,0.332,0.35,0.378,0.254,0.234,0.196,0.106,0.132
EMC-BAC-2,1.06,1.04,0.864,0.919,0.566,0.435,0.439,0.395,0.443,0.399,0.275,0.314,0.247,0.252,0.244,0.52,0.441,0.24,0.155,0.218
EPLC-272H,0.208,0.25,0.215,,0.259,0.319,0.382,0.367,0.402,0.377,0.22,0.381,0.33,,0.477,0.34,0.199,0.304,0.0841,0.0653
H3255,0.967,0.82,0.943,0.834,0.794,0.608,0.564,0.553,0.557,0.57,0.691,0.603,0.694,0.568,0.527,0.338,0.364,0.345,0.288,0.332
HARA,0.318,0.234,0.361,0.202,0.294,0.204,0.272,0.27,0.208,0.253,0.137,0.115,0.138,,0.189,0.422,0.47,0.154,0.0947,0.0925
HCC-15,1.24,1.43,1.22,1.15,1.23,0.232,0.232,0.215,0.233,0.204,0.434,0.586,0.333,0.321,0.176,0.466,0.37,0.188,0.0833,0.165
HCC-44,1.02,1.06,0.952,0.963,0.967,0.56,0.694,0.644,0.649,0.55,1.05,1.25,0.922,0.811,0.29,0.241,0.32,0.193,0.139,0.105
HCC-78,0.862,0.695,0.601,0.596,0.614,0.896,0.939,0.904,0.907,0.862,0.463,0.391,0.466,0.326,0.453,0.667,0.697,0.398,0.439,0.292
HCC-366,0.285,0.254,0.177,0.117,0.0411,0.196,0.172,0.179,0.197,0.149,0.0846,0.0825,0.0964,0.116,0.0753,0.574,0.562,0.276,0.0732,0.0339
